Read-outs that look alike come from different tables or passages of the source.
Legend:
Type in all cases: biochemical
[1] = molecular target: T1, 320 wild-type protein kinases (Homo sapiens, UniProt Q9UEE5); details: kinase STK17A, singlicate
T1 sequence (Q9UEE5 1-414): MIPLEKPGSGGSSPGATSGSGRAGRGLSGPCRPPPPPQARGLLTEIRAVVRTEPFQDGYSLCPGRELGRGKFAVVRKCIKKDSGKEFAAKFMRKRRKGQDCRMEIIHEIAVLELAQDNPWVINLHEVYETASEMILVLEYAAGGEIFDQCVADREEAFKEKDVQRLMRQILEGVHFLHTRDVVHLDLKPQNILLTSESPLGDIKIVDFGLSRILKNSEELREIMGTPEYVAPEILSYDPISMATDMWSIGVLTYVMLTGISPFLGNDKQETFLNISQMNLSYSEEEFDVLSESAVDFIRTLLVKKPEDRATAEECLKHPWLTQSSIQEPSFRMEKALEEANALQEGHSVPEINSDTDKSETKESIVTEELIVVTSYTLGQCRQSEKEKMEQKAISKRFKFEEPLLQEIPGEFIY
Text: (§1) Table S4. Profiling of two compounds at two concentrations against 320 wild-type protein kinases; singlicate measurement; Residual activities (% of control).

[2] = molecular target: T2, 320 wild-type protein kinases (Homo sapiens, UniProt Q99986); details: kinase VRK1, singlicate
T2 sequence (Q99986 1-396): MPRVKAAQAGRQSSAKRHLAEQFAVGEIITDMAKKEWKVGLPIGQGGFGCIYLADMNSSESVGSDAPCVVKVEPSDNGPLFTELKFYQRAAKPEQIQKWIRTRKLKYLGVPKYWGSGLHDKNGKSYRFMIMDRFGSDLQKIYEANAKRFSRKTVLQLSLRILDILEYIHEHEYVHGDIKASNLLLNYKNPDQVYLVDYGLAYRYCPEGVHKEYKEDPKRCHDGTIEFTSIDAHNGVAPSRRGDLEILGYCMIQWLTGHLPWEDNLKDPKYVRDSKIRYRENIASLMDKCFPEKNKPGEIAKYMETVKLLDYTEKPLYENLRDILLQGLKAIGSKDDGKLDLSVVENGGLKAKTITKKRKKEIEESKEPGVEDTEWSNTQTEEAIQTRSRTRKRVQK
Text: as §1

[3] = molecular target: T3, 320 wild-type protein kinases (Homo sapiens, UniProt P43403); details: kinase ZAP70, singlicate
T3 sequence (P43403 1-619): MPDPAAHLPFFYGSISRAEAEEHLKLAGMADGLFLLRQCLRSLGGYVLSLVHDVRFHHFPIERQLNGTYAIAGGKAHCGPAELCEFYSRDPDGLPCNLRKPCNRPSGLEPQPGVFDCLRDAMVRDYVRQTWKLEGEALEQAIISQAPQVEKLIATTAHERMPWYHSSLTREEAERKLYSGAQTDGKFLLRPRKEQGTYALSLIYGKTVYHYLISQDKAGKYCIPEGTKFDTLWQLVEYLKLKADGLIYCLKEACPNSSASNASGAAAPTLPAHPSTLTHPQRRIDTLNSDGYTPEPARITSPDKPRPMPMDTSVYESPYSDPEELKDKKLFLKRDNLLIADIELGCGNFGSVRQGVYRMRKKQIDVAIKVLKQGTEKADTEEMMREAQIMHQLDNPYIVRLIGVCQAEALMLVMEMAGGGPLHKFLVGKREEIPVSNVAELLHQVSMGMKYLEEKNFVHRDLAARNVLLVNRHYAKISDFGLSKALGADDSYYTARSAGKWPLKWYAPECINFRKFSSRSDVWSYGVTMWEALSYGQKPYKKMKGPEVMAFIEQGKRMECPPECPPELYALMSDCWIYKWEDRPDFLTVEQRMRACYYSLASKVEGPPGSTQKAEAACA
Text: as §1

[4] = molecular target: 320 wild-type protein kinases (Homo sapiens, UniProt P41240); details: CSK, singlicate
Text: as §1

[5] = molecular target: 320 wild-type protein kinases (Homo sapiens, UniProt O60566); details: BUB1B, singlicate
Text: as §1

[6] = molecular target: T4, 320 wild-type protein kinases (Homo sapiens, UniProt P52564, S207D/T211D); details: MKK6 S207D/T211D**, singlicate
T4 sequence (P52564 1-334 S207D/T211D): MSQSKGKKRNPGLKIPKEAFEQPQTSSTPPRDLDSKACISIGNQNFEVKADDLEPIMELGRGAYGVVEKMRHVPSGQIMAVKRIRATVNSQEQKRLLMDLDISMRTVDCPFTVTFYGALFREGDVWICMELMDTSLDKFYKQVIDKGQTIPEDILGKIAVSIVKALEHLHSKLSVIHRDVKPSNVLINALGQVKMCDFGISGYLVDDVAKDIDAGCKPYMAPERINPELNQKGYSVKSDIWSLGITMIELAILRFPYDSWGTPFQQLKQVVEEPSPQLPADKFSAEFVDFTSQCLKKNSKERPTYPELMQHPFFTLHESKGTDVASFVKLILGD
Text: as §1

[7] = molecular target: 320 wild-type protein kinases (Homo sapiens, UniProt P22607); details: singlicate
Text: as §1

Sequence of 320 wild-type protein kinases (Homo sapiens, UniProt O60566) (O60566 whole entry): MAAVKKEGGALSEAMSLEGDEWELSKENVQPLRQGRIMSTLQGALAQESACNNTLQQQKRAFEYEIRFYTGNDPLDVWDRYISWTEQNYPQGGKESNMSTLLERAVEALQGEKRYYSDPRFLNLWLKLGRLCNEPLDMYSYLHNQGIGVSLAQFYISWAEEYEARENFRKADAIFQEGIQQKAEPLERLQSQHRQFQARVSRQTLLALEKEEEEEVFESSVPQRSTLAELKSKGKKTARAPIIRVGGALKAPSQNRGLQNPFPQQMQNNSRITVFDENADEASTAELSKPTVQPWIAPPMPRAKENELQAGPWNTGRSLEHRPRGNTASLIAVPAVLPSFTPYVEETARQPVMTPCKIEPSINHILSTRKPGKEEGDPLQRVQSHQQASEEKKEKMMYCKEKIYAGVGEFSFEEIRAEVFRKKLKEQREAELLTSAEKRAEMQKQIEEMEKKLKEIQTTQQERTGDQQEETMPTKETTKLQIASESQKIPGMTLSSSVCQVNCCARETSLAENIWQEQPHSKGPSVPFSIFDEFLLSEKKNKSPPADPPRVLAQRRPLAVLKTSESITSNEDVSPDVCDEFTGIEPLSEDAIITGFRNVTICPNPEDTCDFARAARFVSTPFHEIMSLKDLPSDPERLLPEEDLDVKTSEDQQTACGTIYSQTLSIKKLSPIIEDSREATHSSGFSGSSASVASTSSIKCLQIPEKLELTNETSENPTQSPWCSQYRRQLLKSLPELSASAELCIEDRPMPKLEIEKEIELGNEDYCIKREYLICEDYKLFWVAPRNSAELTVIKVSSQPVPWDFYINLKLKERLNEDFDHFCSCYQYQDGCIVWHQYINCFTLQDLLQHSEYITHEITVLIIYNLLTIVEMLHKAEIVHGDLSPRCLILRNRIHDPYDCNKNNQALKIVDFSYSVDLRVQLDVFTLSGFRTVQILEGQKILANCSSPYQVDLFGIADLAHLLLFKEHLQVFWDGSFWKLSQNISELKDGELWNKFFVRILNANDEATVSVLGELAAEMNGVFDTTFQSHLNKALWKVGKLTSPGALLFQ
Sequence of 320 wild-type protein kinases (Homo sapiens, UniProt P41240) (P41240 whole entry): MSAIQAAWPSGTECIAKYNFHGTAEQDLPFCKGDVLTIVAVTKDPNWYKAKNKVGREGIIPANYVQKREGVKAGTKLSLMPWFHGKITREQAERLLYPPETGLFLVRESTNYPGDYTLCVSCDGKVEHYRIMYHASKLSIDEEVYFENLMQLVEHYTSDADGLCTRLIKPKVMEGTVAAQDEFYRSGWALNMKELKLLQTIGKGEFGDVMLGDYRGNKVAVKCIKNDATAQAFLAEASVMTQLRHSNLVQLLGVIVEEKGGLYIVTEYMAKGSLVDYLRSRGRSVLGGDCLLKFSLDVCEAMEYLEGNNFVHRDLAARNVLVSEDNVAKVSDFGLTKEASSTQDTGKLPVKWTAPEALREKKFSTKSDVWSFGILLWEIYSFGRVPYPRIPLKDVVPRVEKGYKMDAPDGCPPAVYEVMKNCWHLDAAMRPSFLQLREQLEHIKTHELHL
Sequence of 320 wild-type protein kinases (Homo sapiens, UniProt P22607) (P22607 23-806): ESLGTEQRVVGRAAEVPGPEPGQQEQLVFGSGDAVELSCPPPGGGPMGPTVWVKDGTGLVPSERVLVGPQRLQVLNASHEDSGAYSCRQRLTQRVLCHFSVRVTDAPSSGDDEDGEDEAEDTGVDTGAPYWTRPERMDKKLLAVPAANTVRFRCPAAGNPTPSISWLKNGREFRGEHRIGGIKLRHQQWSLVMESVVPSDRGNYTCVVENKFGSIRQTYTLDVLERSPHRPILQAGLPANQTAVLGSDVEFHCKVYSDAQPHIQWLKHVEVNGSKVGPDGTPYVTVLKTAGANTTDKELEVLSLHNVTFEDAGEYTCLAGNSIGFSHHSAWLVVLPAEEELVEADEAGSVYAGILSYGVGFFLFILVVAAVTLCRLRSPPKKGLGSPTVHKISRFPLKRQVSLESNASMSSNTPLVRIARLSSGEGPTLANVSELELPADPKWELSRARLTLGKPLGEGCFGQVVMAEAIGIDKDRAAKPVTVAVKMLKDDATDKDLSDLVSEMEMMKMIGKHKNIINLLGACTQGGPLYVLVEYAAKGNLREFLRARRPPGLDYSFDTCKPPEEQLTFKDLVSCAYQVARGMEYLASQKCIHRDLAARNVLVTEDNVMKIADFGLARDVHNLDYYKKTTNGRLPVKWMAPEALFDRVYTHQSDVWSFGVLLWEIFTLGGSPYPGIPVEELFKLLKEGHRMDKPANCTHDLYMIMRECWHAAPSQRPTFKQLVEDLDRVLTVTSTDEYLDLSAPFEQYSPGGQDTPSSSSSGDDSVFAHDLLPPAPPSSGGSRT

Row | Structure (SMILES) | Residual activity, STK17A ([1]; assay conc. 1.0E-06 M) | Residual activity, STK17A ([1]; assay conc. 1.0E-07 M) | Residual activity, VRK1 ([2]; assay conc. 1.0E-06 M) | Residual activity, VRK1 ([2]; assay conc. 1.0E-07 M) | Residual activity, ZAP70 ([3]; assay conc. 1.0E-06 M) | Residual activity, ZAP70 ([3]; assay conc. 1.0E-07 M) | Residual activity ([4]; 1.0E-06 M) | Residual activity ([4]; 1.0E-07 M) | Residual activity ([5]; 1.0E-06 M) | Residual activity ([5]; 1.0E-07 M) | Residual activity ([6]; 1.0E-06 M) | Residual activity ([6]; 1.0E-07 M) | Residual activity ([7]; FGF-R3, 1.0E-06 M) | Residual activity ([7]; FGF-R3, 1.0E-07 M)
1 | C#Cc1cc(Nc2ncnc3cc(I)ccc23)ccc1Cl [Compound 41] | 103 % of control | 104 % of control | 98 % of control | 109 % of control | 103 % of control | 111 % of control | 92 % of control | 110 % of control | 131 % of control | 122 % of control | 98 % of control | 90 % of control | 93 % of control | 99 % of control
2 | C#Cc1cc(Nc2ncnc3cc(OC)c(OC)cc23)ccc1Cl [Compound 45] | 83 % of control | 102 % of control | 93 % of control | 104 % of control | 104 % of control | 100 % of control | 92 % of control | 106 % of control | 115 % of control | 137 % of control | 90 % of control | 95 % of control | 70 % of control | 79 % of control

Reference: paper PMC9329436, “Optimization of the 4-anilinoquin(az)oline scaffold as epidermal growth factor receptor (EGFR) inhibitors for chordoma utilizing a toxicology profiling assay platform” (Scientific Reports, 2022)
